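Five compound concentrations were applied to cells in 96-well plates for 48 hours; endpoints were derived by simple linear interpolation of the resulting dose-response curve. Here, GI50 denotes the concentration required for 50% inhibition of growth. The concentration for full growth arrest is given as TGI.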
Tests used:
Assay in all cases: NCI tumour cell line growth inhibition, 48 h
MDA-MB-231 breast = system: MDA-MB-231 breast
ACHN renal = system: ACHN renal
PC-3 prostate = system: PC-3 prostate
NCI/ADR-RES ovarian = system: NCI/ADR-RES ovarian
SF-295 CNS = system: SF-295 CNS
HT29 colon = system: HT29 colon
NCI-H23 lung = system: NCI-H23 lung
SF-268 CNS = system: SF-268 CNS
OVCAR-4 ovarian = system: OVCAR-4 ovarian
OVCAR-5 ovarian = system: OVCAR-5 ovarian
T-47D breast = system: T-47D breast
HCT-116 colon = system: HCT-116 colon
HOP-62 NSCLC = system: HOP-62 NSCLC
EKVX NSCLC = system: EKVX NSCLC
NCI-H522 lung = system: NCI-H522 lung
IGROV1 ovarian = system: IGROV1 ovarian
UACC-62 melanoma = system: UACC-62 melanoma
HCC-2998 colon = system: HCC-2998 colon
SW-620 colon = system: SW-620 colon
DU-145 prostate = system: DU-145 prostate
RPMI-8226 leukemia = system: RPMI-8226 leukemia
A549 NSCLC = system: A549 NSCLC
CCRF-CEM leukemia = system: CCRF-CEM leukemia
SNB-19 CNS = system: SNB-19 CNS
HCT-15 colon = system: HCT-15 colon
KM12 colon = system: KM12 colon
HS 578T breast = system: HS 578T breast
M14 melanoma = system: M14 melanoma
SNB-75 CNS = system: SNB-75 CNS
HOP-92 NSCLC = system: HOP-92 NSCLC
CAKI-1 renal = system: CAKI-1 renal
OVCAR-3 ovarian = system: OVCAR-3 ovarian
COLO 205 colon = system: COLO 205 colon
MDA-MB-435 = system: MDA-MB-435
RXF 393 renal = system: RXF 393 renal
UACC-257 melanoma = system: UACC-257 melanoma
MALME-3M melanoma = system: MALME-3M melanoma
HL-60(TB) leukemia = system: HL-60(TB) leukemia
MCF7 breast = system: MCF7 breast
UO-31 renal = system: UO-31 renal
MOLT-4 leukemia = system: MOLT-4 leukemia
SK-OV-3 ovarian = system: SK-OV-3 ovarian
786-0 renal = system: 786-0 renal
SK-MEL-28 melanoma = system: SK-MEL-28 melanoma
A498 renal = system: A498 renal
SN12C renal = system: SN12C renal
NCI-H460 lung = system: NCI-H460 lung
NCI-H226 lung = system: NCI-H226 lung
LOX IMVI melanoma = system: LOX IMVI melanoma
SK-MEL-5 melanoma = system: SK-MEL-5 melanoma
BT-549 breast = system: BT-549 breast
SR leukemia = system: SR leukemia
OVCAR-8 ovarian = system: OVCAR-8 ovarian
K-562 leukemia = system: K-562 leukemia
TK-10 renal = system: TK-10 renal
U251 CNS = system: U251 CNS

## COc1ccc([C@@H]2[C@@H](O)C(=O)N2c2cc(OC)c(OC)c(OC)c2)cc1F
MDA-MB-231 breast
  GI50: 49.1 nM
  TGI: > 100 µM
ACHN renal
  GI50: 56.8 nM
  TGI: > 100 µM
PC-3 prostate
  GI50: 54.6 nM
  TGI: > 100 µM
NCI/ADR-RES ovarian
  GI50: 56.2 nM
  TGI: > 100 µM
SF-295 CNS
  GI50: 36.2 nM
  TGI: > 100 µM
HT29 colon
  GI50: 30.5 nM
  TGI: 110 nM
NCI-H23 lung
  GI50: 52.5 nM
  TGI: > 100 µM
SF-268 CNS
  GI50: 98.4 nM
  TGI: > 100 µM
OVCAR-4 ovarian
  GI50: 686 nM
  TGI: > 100 µM
OVCAR-5 ovarian
  GI50: 49.6 nM
  TGI: > 100 µM
T-47D breast
  GI50: > 55.2 µM
  TGI: > 100 µM
HCT-116 colon
  GI50: 33.9 nM
  TGI: > 100 µM
HOP-62 NSCLC
  GI50: 58.2 nM
  TGI: > 100 µM
EKVX NSCLC
  GI50: > 100 µM
  TGI: > 100 µM
NCI-H522 lung
  GI50: 19.9 nM
  TGI: 53.7 nM
IGROV1 ovarian
  GI50: 51.5 nM
  TGI: > 100 µM
UACC-62 melanoma
  GI50: 48.7 nM
  TGI: > 100 µM
HCC-2998 colon
  GI50: 48.5 nM
  TGI: > 100 µM
SW-620 colon
  GI50: 45.9 nM
  TGI: > 100 µM
DU-145 prostate
  GI50: 39.5 nM
  TGI: > 100 µM
RPMI-8226 leukemia
  GI50: 41.5 nM
  TGI: > 21.8 µM
A549 NSCLC
  GI50: 44.8 nM
  TGI: > 100 µM
CCRF-CEM leukemia
  GI50: 42.6 nM
  TGI: > 100 µM
SNB-19 CNS
  GI50: 79.9 nM
  TGI: > 100 µM
HCT-15 colon
  GI50: 35.9 nM
  TGI: > 100 µM
KM12 colon
  GI50: 36.8 nM
  TGI: > 100 µM
HS 578T breast
  GI50: 57.6 nM
  TGI: > 100 µM
M14 melanoma
  GI50: 35 nM
  TGI: > 100 µM
SNB-75 CNS
  GI50: 45.6 nM
  TGI: > 100 µM
HOP-92 NSCLC
  TGI: > 100 µM
CAKI-1 renal
  GI50: 46.3 nM
  TGI: > 61.6 µM
OVCAR-3 ovarian
  GI50: 29.9 nM
  TGI: 114 nM
COLO 205 colon
  GI50: 30.3 nM
  TGI: 93.3 nM
MDA-MB-435
  GI50: 23.1 nM
  TGI: 57.5 nM
RXF 393 renal
  GI50: 30.5 nM
UACC-257 melanoma
  TGI: > 100 µM
MALME-3M melanoma
  GI50: 79.1 nM
  TGI: > 100 µM
HL-60(TB) leukemia
  GI50: 32.9 nM
  TGI: 207 nM
MCF7 breast
  GI50: 35.2 nM
  TGI: > 100 µM
UO-31 renal
  GI50: 72.8 nM
  TGI: > 100 µM
MOLT-4 leukemia
  GI50: 45.8 nM
  TGI: > 100 µM
SK-OV-3 ovarian
  GI50: 55.9 nM
  TGI: > 84.6 µM
786-0 renal
  GI50: 41.9 nM
  TGI: > 100 µM
SK-MEL-28 melanoma
  GI50: 792 nM
  TGI: > 100 µM
A498 renal
  GI50: 22.4 µM
  TGI: > 100 µM
SN12C renal
  GI50: 50.4 nM
  TGI: > 100 µM
NCI-H460 lung
  GI50: 34.4 nM
  TGI: > 100 µM
NCI-H226 lung
  GI50: 34.5 nM
  TGI: 432 nM
LOX IMVI melanoma
  GI50: 38.1 nM
  TGI: > 100 µM
SK-MEL-5 melanoma
  GI50: 35.1 nM
  TGI: 175 nM
BT-549 breast
  GI50: 29.4 nM
  TGI: 203 nM
SR leukemia
  GI50: 33.4 nM
  TGI: > 100 µM
OVCAR-8 ovarian
  GI50: 40.7 nM
  TGI: > 100 µM
K-562 leukemia
  GI50: 38.1 nM
  TGI: > 100 µM
TK-10 renal
  GI50: > 100 µM
  TGI: > 100 µM
U251 CNS
  GI50: 36 nM
  TGI: > 100 µM

Reference: PubChem BioAssay (NCI)
